# In US12433903B2 (priority 2021, dated 2025):
# Experiments:
# [1] = system: cryopreserved hepatocytes; test: Hepatocyte stability and metabolite profiling, monkey; format: in vitro ADME; settings: monkey hepatocyte samples, 10 and 20 minute
# Method: The objective of this study was to investigate the stability of the test compound, CBG, in human, rat, dog, mouse, monkey and minipig cryopreserved hepatocytes. Follow-on metabolite profiling was performed.
# CBG was incubated up to 2 hr with cryopreserved hepatocytes. Cryopreserved hepatocytes in suspension were added to test compound in supplemented media following pre-incubation to initiate the reaction and the reactions were stopped by organic solvent at the appropriate time points. The termination plates were centrifuged and sample supernatants were analysed using Cyprotex generic LC MS/MS conditions to generate intrinsic clearance values for CBG. Two control compounds for each species were included in the assay and if the values for these compounds were not within the specified limits the results were rejected and the experiment repeated.
# Following the hepatocyte stability assay the samples were 59 tilized for metabolite profiling using suitable high-resolution LC-MS/MS conditions. The 40 and 60 minute human samples, 20 and 120 minute rat samples, 10 and 20 minute dog and monkey samples, 20 and 60 minute mouse samples, and 40 and 120 minute minipig samples were compared against the 0 minute control sample to establish which and how many metabolites were formed. […]
# The areas and percentages reported for the parent and metabolites were calculated using the XIC data. […]
# [2] = molecular target: T1, adrenoceptor alpha 2A (ADRA2A) (Homo sapiens, UniProt P08913); test: ADRA2A agonist assay (cAMP secondary messenger pathway, HitHunter cAMP XS+); format: cell-based
# T1 construct: expressed in transfected cells
# T1 sequence (P08913 1-465): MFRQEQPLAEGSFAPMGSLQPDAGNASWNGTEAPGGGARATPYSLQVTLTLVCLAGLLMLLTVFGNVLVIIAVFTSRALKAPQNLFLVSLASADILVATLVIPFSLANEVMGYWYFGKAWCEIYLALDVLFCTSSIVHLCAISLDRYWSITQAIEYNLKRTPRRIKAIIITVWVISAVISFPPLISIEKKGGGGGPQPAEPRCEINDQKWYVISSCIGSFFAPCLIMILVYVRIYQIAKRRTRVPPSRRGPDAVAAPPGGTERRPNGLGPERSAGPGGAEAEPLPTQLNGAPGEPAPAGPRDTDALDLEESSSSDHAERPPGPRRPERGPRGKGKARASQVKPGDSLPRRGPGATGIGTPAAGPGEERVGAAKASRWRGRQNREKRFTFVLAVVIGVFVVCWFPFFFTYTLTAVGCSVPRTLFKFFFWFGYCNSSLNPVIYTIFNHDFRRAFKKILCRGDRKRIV
# From the text: Compounds of the present disclosure (e.g., one or more compounds of Formula (1), (II), (III), Table 1 or Table 2) may be tested for activity in receptor binding assays using methods known in the art, to evaluate agonist, antagonist, inverse agonist and other modes of activity. For example compounds of the disclosure may be tested in a adrenoceptor alpha 2A (ADRA2A) Agonist assay as follows:
# Cell lines stably expressing non-tagged adrenoceptor alpha 2A (ADRA2A) that signal through cAMP were used. Agonist assays monitored by the activation of ADRA2A via Gi or Gs secondary messenger signaling in a homogenous, non-imaging assay format using a technology called Enzyme Fragment Complementation (EFC) with P-galactosidase (p-Gal) as the functional reporter.
# The enzyme is split into two complementary portions: EA for Enzyme Acceptor and ED for Enzyme Donor. ED is fused to cAMP and in the assay competes with cAMP generated by cells for binding to a cAMP-specific antibody. Active P-Gal is formed by complementation of exogenous EA to any unbound ED cAMP. Active enzyme can then convert a chemiluminescent substrate, generating an output signal detectable on a standard microplate reader.
# • 1. cAMP assay ADRA2A cell lines were expanded from freezer stocks according to standard procedures. • 2. Cells were seeded in a total volume of 20 μL into white walled, 384 well microplates and incubated at 37° C. for the appropriate time prior to testing • 3. cAMP modulation was determined using the DiscoverX HitHunter cAMP XS+ assay Gs Agonist Format • 1. For agonist determination, cells were incubated with sample to induce response. • 2. Media was aspirated from cells and replaced with 15 μL 2:1 HBSS/10 mM Hepes: cAMP XS+Ab reagent. • 3. Intermediate dilution of sample stocks was performed to generate 4× sample in assay buffer. • 4. 5 μL of 4× sample was added to cells and incubated at 37° C. or room temperature for 30 or 60 minutes. Vehicle concentration was 1%. Gi Agonist Format • 1. For agonist determination, cells were incubated with sample in the presence of EC80 forskolin to induce response. • 2. Media was aspirated from cells and replaced with 15 μL 2:1 HBSS/10 mM Hepes: cAMP XS+Ab reagent. • 3. Intermediate dilution of sample stocks was performed to generate 4× sample in assay buffer containing 4× EC80 forskolin. • 4. 5 μL of 4× sample was added to cells and incubated at 37° C. or room temperature for 30 or 60 minutes. Final assay vehicle concentration was 1% Signal Detection • 1. After appropriate compound incubation, assay signal was generated through incubation with 20 μL cAMP XS+ED/CL lysis cocktail for one hour followed by incubation with 20 μL cAMP XS+EA reagent for three hours at room temperature. • 2. Microplates were read following signal generation with a PerkinElmer Envision™ instrument for chemiluminescent signal detection. Data Analysis • 1. Compound activity was analyzed using CBIS data analysis suite (ChemInnovation, CA) • 2. For Gs agonist mode assays, percentage activity is calculated using the following formula: % Activity=100%×(mean RLU of test sample−mean RLU of vehicle control)/(mean RLU of MAX control−mean RLU of vehicle control). • 3. For Gi agonist mode assays, percentage activity is calculated using the following formula: % Activity=100%×(1−(mean RLU of test sample-mean RLU of MAX control)/(mean RLU of vehicle control-mean RLU of MAX control))
structure (smiles),measurement,setting,value
"CCCCCc1cc(O)c(C/C=C(\C)CCC=C(C)C)c(O)c1 [CBG, cannabigerol]",metabolites observed (number),[1],four
same,Curve Bottom,[2],17.138
same,Curve Top,[2],167.56
same,Hill,[2],1.5564
same,Emax,[2]; read-out: Max Response,163%
same,EC50,[2]; read-out: RC50 (Result Type EC50),1340 nM
